Assay results published in ChEMBL document CHEMBL5120857, “Rational design, synthesis and biological evaluation of dual PARP-1/2 and TNKS1/2 inhibitors for cancer therapy” (Eur J Med Chem, 2022).
The source made the active and inactive calls. No cut-off for these calls is given here.

Legend:
[1] = target: T1, Poly [ADP-ribose] polymerase tankyrase-2 (Homo sapiens, UniProt Q9H2K2); assay: Inhibition of TNKS2 (unknown origin) using biotin-NAD+ as substrate incubated for 1 hr in the presence of deoxy-oligonucleotide by ELISA analysis relative to control
T1 sequence (Q9H2K2 whole entry): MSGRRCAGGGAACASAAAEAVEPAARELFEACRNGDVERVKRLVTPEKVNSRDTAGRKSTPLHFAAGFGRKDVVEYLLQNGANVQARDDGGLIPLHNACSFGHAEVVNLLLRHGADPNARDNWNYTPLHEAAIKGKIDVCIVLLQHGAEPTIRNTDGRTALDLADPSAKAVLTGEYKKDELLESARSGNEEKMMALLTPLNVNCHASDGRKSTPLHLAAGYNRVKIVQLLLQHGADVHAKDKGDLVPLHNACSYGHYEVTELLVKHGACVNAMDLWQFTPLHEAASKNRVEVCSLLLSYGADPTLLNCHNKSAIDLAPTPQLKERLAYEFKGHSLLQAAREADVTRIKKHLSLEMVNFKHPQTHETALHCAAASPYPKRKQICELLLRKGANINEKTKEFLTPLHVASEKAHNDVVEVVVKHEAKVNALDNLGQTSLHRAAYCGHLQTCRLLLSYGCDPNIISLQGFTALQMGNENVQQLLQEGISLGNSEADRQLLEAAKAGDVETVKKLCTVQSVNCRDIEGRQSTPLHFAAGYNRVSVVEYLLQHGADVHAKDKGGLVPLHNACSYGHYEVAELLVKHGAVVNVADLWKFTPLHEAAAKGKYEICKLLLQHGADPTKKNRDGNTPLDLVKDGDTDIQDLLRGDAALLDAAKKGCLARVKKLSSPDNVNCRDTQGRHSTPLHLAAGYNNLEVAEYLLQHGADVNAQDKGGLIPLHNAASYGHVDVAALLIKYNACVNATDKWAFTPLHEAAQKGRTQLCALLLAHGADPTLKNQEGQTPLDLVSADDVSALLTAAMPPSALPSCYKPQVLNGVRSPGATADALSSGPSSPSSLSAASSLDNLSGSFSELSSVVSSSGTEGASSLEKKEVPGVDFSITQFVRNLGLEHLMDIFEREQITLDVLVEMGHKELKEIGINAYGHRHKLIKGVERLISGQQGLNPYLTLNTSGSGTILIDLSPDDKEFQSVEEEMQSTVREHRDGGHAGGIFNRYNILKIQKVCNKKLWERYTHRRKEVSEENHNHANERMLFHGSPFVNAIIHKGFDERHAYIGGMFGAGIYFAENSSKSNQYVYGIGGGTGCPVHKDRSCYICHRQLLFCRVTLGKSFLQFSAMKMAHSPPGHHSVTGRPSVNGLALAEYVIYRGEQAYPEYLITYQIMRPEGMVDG

[2] = target: T2, Poly [ADP-ribose] polymerase 1 (Homo sapiens, UniProt P09874); conditions: dose 10.0 nM, time 45.0 min
T2 sequence (P09874 whole entry): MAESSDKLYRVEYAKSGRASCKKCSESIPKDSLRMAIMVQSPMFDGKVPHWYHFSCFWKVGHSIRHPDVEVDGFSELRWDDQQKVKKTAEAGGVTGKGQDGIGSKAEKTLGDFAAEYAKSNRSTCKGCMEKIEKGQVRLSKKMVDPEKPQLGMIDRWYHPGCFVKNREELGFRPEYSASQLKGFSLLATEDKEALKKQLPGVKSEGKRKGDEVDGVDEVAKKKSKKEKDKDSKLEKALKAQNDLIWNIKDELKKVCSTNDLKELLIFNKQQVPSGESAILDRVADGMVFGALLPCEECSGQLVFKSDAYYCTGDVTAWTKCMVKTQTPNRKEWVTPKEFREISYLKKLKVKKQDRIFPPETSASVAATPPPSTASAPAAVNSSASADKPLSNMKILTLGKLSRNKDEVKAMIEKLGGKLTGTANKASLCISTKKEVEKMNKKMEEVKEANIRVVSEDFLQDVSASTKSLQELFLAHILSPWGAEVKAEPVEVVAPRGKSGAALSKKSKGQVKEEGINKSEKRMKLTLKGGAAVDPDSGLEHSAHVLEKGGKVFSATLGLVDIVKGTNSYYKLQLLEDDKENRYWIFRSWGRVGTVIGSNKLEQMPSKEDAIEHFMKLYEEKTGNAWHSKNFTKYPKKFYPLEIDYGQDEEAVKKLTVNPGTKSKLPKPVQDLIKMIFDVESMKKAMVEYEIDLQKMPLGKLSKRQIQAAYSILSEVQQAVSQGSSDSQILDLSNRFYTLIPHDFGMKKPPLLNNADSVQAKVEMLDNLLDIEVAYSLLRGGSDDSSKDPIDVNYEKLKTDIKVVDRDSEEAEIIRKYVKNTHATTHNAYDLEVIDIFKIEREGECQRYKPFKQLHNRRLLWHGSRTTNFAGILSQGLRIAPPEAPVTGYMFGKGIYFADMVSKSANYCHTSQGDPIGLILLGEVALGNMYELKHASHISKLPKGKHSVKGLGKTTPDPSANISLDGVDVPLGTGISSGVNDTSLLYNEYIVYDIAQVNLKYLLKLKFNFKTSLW

[3] = target: T2, Poly [ADP-ribose] polymerase 1; assay: Inhibition of PARP-1 (unknown origin) using biotinylated NAD+ as substrate incubated for 45 mins in the presence of deoxy-oligonucleotide by microplate reader method relative to control
[4] = target: T3, Poly [ADP-ribose] polymerase tankyrase-1 (Homo sapiens, UniProt O95271); assay: Inhibition of TNKS1 (unknown origin) using biotin-NAD+ as substrate incubated for 1 hr in the presence of deoxy-oligonucleotide by ELISA analysis relative to control
T3 sequence (O95271 whole entry): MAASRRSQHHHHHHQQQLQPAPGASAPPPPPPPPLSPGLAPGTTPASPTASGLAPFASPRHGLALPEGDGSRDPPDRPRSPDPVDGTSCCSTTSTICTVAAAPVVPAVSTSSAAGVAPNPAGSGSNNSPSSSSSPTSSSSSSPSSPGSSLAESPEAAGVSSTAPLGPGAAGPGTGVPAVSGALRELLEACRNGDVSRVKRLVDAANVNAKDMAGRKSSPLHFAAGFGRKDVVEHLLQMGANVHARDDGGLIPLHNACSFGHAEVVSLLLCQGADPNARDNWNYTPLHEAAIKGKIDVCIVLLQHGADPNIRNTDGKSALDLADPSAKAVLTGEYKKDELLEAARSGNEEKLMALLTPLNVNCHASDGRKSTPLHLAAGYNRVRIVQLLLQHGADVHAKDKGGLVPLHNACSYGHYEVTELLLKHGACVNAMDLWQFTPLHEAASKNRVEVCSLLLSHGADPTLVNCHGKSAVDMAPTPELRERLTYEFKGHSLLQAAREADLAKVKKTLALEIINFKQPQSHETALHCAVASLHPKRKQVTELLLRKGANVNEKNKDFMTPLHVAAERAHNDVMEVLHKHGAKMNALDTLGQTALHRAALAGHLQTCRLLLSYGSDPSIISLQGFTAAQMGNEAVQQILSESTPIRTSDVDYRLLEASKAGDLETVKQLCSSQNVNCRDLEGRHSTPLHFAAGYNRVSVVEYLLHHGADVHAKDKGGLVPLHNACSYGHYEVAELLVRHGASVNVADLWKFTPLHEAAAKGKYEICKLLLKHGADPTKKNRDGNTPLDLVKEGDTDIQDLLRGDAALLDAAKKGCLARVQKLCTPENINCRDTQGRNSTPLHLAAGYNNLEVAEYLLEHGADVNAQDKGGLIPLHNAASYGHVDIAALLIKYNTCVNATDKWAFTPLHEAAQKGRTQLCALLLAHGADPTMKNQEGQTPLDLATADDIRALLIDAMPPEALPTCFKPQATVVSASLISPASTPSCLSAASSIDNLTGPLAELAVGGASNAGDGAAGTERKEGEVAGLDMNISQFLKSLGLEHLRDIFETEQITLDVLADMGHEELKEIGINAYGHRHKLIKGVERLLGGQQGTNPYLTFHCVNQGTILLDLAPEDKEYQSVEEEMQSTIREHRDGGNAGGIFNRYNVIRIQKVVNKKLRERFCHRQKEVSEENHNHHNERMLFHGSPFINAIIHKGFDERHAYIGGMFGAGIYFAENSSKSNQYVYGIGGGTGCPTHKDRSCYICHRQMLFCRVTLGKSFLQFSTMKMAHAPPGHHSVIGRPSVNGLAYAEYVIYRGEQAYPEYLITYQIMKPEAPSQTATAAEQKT

[5] = target: T4, Poly [ADP-ribose] polymerase tankyrase-1 (Homo sapiens) (UniProt O95271); conditions: dose 10.0 nM, time 1.0 hrs
T4 sequence (whole entry): T3 sequence (O95271 whole entry)

[6] = target: T5, Poly [ADP-ribose] polymerase tankyrase-2 (Homo sapiens) (UniProt Q9H2K2); conditions: dose 10.0 nM, time 1.0 hrs
T5 sequence (whole entry): T1 sequence (Q9H2K2 whole entry)

MDA-MB-468 = assay: Antiproliferative activity against human MDA-MB-468 cells assessed as inhibition of cell growth incubated for 7 days by MTT assay; assay type: functional, cell-based; conditions: MDA-MB-468, 168 h
[7] = Cytotoxicity against mouse AML12 cells assessed as reduction in cell viability incubated for 7 days by MTT assay; assay type: toxicity, cell-based; conditions: time 7 day
MDA-MB-231 = assay: Antiproliferative activity against human MDA-MB-231 cells assessed as inhibition of cell growth incubated for 7 days by MTT assay; assay type: functional, cell-based; conditions: MDA-MB-231, 168 h
HCT-116 [8] = assay: Antiproliferative activity against human HCT-116 cells assessed as inhibition of cell growth incubated for 7 days by MTT assay; assay type: functional, cell-based; conditions: HCT-116, 168 h
HCT-116 [9] = assay: Inhibition of PARP in human HCT-116 cells assessed as decrease in pADPr levels at 10 uM by Western blot analysis; assay type: cell-based
HCT-116 [10] = assay: Inhibition of Wnt/beta-Catenin signaling in human HCT-116 cells assessed as increase in axin2 levels at 10 uM by Western blot analysis; assay type: cell-based
HCT-116 [11] = assay: Inhibition of Wnt/beta-Catenin signaling in human HCT-116 cells assessed as decrease in cyclin D1 levels at 10 uM by Western blot analysis; assay type: cell-based

Compound | IC50 [1] [nM] | inhibition [2] [%] | IC50 [3] [nM] | IC50 [4] [nM] | inhibition [5] [%] | inhibition [6] [%] | IC50 (MDA-MB-468) [nM] | IC50 (MDA-MB-231) [nM] | IC50 (HCT-116 [8]) [nM] | CC50 at 168 h [7] [nM] | inhibition (HCT-116 [9]) | inhibition (HCT-116 [10]) | inhibition (HCT-116 [11])
O=C(Nc1ccccc1F)c1ccc(NC(=O)N2CCN(C(=O)c3cc(Cc4n[nH]c(=O)c5ccccc45)ccc3F)CC2)cc1 | 296 | 99 | 0.98 | 506 | 10.5 | 36 |  |  |  |  |  |  | 
Cc1ccc(NC(=O)c2ccc(NC(=O)N3CCN(C(=O)c4cc(Cc5n[nH]c(=O)c6ccccc56)ccc4F)CC3)cc2)cc1 | 14 | 99 | 0.49 | 39 | 13 | 48 | 40 | 680 | 700 | 49200 |  |  | 
COc1ccc(NC(=O)c2ccc(NC(=O)C3CCN(C(=O)c4cc(Cc5n[nH]c(=O)c6ccccc56)ccc4F)CC3)cc2)cc1 |  | 97 |  |  |  | 11.5 |  |  |  |  |  |  | 
Cc1ccccc1NC(=O)c1ccc(NC(=O)N2CCN(C(=O)c3cc(Cc4n[nH]c(=O)c5ccccc45)ccc3F)CC2)cc1 | 110 | 99 | 1.62 | 130 | 20 | 40 | 70 | 1290 | 1040 | 86700 |  |  | 

Further lines, with some results ahead:

IC50 [1] [nM] | inhibition [2] [%] | IC50 [3] [nM] | IC50 [4] [nM] | inhibition [5] [%] | inhibition [6] [%] | IC50 (MDA-MB-468) [nM] | IC50 (MDA-MB-231) [nM] | IC50 (HCT-116 [8]) [nM] | Compound | CC50 at 168 h [7] [nM] | inhibition (HCT-116 [9]) | inhibition (HCT-116 [10]) | inhibition (HCT-116 [11])
 | 98 |  |  |  | 26 |  |  |  | O=C(Nc1cccc(F)c1)c1ccc(NC(=O)N2CCN(C(=O)c3cc(Cc4n[nH]c(=O)c5ccccc45)ccc3F)CC2)cc1 |  |  |  | 
 | 51.5 |  |  | 22.5 | 22.5 |  |  |  | COc1ccc(NC(=O)c2ccc(NC(=O)N3CCN(C(=O)c4cc5cccc(C(N)=O)c5o4)CC3)cc2)cc1 |  |  |  | 
 |  |  |  | 86 |  |  |  |  | Oc1nc(-c2ccc(C(F)(F)F)cc2)nc2c1CSCC2 |  | Active | Active | Active
